Reference: US6919363B2, “Aryl substituted pyrazoles, triazoles and tetrazoles, and the use thereof” (Euro-Celtique S.A., priority 2000, dated 2005)
Where two headings read alike, the source gives them in different places.

Legend:
[1] = tested on: maximal electroshock-induced seizures (MES); experiment: maximum electroshock seizure test (MES), anticonvulsant activity; assay type: in vivo, mouse
Excerpt: The compounds of the present invention may be tested for in vivo anticonvulsant activity after i.v., p.o. or i.p. injection using a number of anticonvulsant tests in mice, including the maximum electroshock seizure test (MES). Maximum electroshock seizures are induced in male NSA mice weighing between 15-20 g and male Sprague-Dawley rats weighing between 200-225 g by application of current (50 mA, 60 pulses/sec, 0.8 msec pulse width, 1 sec duration, D.C., mice; 99 mA, 125 pulses/sec, 0.8 msec pulse width, 2 sec duration, D.C., rats) using a Ugo Basile ECT device (Model 7801). Mice are restrained by gripping the loose skin on their dorsal surface and saline-coated corneal electrodes are held lightly against the two corneae. Rats are allowed free movement on the bench top and ear-clip electrodes are used. Current is applied and animals are observed for a period of up to 30 seconds for the occurrence of a tonic hindlimb extensor response. A tonic seizure is defined as a hindlimb extension in excess of 90 degrees from the plane of the body. Results are treated in a quantal manner.
The ability of compounds of the present invention to block maximal electroshock-induced seizures (MES) is determined as described earlier.
A compound of the present invention is administered p.o. to mice 30 minutes before the test procedure.

[2] = biological target: rBIIA isoform of Na+ channels (Rattus norvegicus, UniProt P04775); experiment: electrophysiological assay, patch-clamp recordings of voltage-sensitive Na+ currents in HEK-293 cells; assay type: cell-based; conditions: rBIIA isoform of sodium channel
Description: Cell preparation: HEK-293 (NaIIA-B2) cell line stably expressing the rBIIA isoform of Na^+ channels is established in-house. The cells are cultured using standard techniques, as described previously (Verdoorn, T. A, et al., Neuron 4:919-928 (1990)). For electrophysiology, cells are plated onto poly-D-lysine pre-coated Cellware 35 mm Petri dishes (BIOCOAT, Becton Dickinson) at a density of ˜10^4 cells/dish on the day of re-seeding from confluent cultures. Our experience has been that cells are suitable for recordings for 2-3 days after plating.
Patch-clamp recordings of voltage-sensitive Na^+ currents: Whole-cell voltage-clamp recordings are made using conventional patch-clamp techniques (Hamill et al., Pfluegers Arch. 391:85-100 (1981)) with an Axopatch 200A amplifier (Axon Instruments, Foster City, Calif.). The recording chamber is continuously superfused with the external solution (150 mM NaCl, 5.4 mM KCl, 1.8 mM CaCl2, 1 mM MgCl2, 10 mM HEPES, 10 mM glucose, pH 7.4 adjusted with NaOH, osmolality ˜320 mmol/kg) at a speed of about 1 mL/min. […] Currents are recorded at room temperature (22-25° C.), filtered at 3 kHz with an active 8-pole Bessel filter (Frequency Devices, Haverhill, Mass.), digitized at 10-50 μs intervals, and stored using Digidata 1200 analog/digital interface with Pclamp6/Clampex software (Axon Instruments). […]

[3] = iv, mouse, i.v., read-out: MES i.v. ED50

Sequence of rBIIA isoform of Na+ channels (P04775 whole entry, canonical isoform): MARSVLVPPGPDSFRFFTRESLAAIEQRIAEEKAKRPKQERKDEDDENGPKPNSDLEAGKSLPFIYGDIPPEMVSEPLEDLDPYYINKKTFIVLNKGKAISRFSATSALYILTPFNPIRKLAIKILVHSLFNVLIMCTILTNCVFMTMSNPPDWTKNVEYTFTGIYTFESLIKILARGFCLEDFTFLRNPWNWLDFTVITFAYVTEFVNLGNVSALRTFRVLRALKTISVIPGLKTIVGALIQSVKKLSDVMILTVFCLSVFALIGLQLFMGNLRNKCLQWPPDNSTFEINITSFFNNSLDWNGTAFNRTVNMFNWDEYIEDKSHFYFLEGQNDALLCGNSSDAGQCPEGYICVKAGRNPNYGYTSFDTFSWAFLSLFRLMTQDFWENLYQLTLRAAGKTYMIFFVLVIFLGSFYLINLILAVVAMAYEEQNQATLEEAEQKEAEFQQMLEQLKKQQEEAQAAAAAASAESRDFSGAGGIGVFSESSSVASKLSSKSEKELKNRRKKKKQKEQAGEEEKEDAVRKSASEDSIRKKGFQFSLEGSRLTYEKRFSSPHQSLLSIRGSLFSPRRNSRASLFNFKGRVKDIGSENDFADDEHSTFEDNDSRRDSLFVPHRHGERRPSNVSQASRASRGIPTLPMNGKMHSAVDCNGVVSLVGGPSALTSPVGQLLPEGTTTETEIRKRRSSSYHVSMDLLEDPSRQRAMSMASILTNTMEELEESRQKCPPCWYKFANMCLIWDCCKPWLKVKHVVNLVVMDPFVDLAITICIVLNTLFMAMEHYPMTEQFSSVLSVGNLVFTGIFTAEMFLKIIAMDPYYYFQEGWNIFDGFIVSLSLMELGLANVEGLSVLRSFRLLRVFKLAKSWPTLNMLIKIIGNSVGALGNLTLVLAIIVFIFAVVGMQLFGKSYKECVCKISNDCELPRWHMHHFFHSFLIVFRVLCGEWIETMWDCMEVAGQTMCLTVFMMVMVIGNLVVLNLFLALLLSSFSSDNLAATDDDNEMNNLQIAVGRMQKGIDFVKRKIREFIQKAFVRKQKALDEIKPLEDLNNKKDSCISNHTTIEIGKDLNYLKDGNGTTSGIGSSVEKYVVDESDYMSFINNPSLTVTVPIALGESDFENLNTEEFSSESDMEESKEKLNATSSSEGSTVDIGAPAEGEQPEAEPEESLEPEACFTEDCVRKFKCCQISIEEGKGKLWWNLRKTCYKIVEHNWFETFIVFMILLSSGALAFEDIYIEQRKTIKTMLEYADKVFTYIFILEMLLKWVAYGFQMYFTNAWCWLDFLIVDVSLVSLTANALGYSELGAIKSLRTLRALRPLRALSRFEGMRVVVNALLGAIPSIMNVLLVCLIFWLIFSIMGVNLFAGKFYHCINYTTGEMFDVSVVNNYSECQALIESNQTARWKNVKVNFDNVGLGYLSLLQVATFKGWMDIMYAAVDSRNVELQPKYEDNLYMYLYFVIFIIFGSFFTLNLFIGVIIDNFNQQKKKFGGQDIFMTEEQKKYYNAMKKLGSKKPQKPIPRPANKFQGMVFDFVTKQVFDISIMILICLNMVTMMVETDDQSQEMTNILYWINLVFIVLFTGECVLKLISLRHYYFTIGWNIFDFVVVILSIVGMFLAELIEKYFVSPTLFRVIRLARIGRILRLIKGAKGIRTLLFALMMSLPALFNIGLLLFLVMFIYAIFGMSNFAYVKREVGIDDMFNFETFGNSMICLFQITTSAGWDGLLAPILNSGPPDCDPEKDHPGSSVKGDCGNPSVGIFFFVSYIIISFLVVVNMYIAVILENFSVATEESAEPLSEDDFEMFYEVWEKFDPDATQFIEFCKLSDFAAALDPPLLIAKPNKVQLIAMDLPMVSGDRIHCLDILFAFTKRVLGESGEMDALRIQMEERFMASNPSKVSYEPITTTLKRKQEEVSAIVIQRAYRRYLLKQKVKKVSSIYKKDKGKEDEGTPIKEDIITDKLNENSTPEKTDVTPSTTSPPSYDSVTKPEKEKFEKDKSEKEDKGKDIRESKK

| SMILES | ED50 [1, 3] | melting point | Ki [2] | ED50 ([1]; Mus musculus, po, mice, 30 minutes before the test procedure, read-out: MES po ED50) |
| --- | --- | --- | --- | --- |
| NC(=O)c1ccnn1-c1ccc(Oc2ccccc2)cc1 [1-(4-phenoxyphenyl)-1H-pyrazole-5-carboxamide] | 10 mg/kg | 142 to 144 °C |  |  |
| NC(=O)c1ccn(-c2ccc(Oc3ccccc3)cc2)n1 [1-(4-Phenoxyphenyl)-1H-pyrazole-3-carboxamide] | 0.7 mg/kg | 165 to 167 °C | 350 nM |  |
| O=[N+]([O-])c1ccc(Oc2ccc(-n3cncn3)cc2)cc1 [1-[4-(4-Nitrophenoxy)phenyl]-1H-[1,2,4]triazole] |  |  |  | 6.6 mg/kg |
